Columns and labels:
Assay in all cases: Kinase Hotspot radiolabel assay
Type in all cases: biochemical
Conditions in all cases: read-out: % Residual Activity
PYK2 = target: T1, PYK2 (Homo sapiens, UniProt Q14289)
T1 construct: purchased Reaction Biology Corporation (Kinase HotSpot)
Summary of the method: (§1)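 1 µM cpd; 369-kinase radiolabel Hotspot panel; Ki run for hits >90% inhibition.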

FGFR2 = target: T2, FGFR2 (Homo sapiens, UniProt P21802)
T2 construct: purchased Reaction Biology Corporation (Kinase HotSpot)
Summary of the method: as §1

ROCK2 = target: T3, ROCK2 (Homo sapiens, UniProt O75116)
T3 construct: purchased Reaction Biology Corporation (Kinase HotSpot)
Summary of the method: as §1

SNRK = target: T4, SNRK (Homo sapiens, UniProt Q9NRH2)
T4 construct: purchased Reaction Biology Corporation (Kinase HotSpot)
Summary of the method: as §1

WNK1 = target: T5, WNK1 (Homo sapiens, UniProt Q9H4A3)
T5 construct: purchased Reaction Biology Corporation (Kinase HotSpot)
Summary of the method: as §1

CK2a = target: T6, CK2a (Homo sapiens, UniProt P68400)
T6 construct: purchased Reaction Biology Corporation (Kinase HotSpot)
Summary of the method: as §1

ASK1/MAP3K5 = target: T7, ASK1/MAP3K5 (Homo sapiens, UniProt Q99683)
T7 construct: purchased Reaction Biology Corporation (Kinase HotSpot)
Summary of the method: as §1

TLK2 = target: T8, TLK2 (Homo sapiens, UniProt Q86UE8)
T8 construct: purchased Reaction Biology Corporation (Kinase HotSpot)
Summary of the method: as §1

PKCiota = target: T9, PKCiota (Homo sapiens, UniProt P41743)
T9 construct: purchased Reaction Biology Corporation (Kinase HotSpot)
Summary of the method: as §1

MAPKAPK3 = target: T10, MAPKAPK3 (Homo sapiens, UniProt Q16644)
T10 construct: purchased Reaction Biology Corporation (Kinase HotSpot)
Summary of the method: as §1

p70S6Kb/RPS6KB2 = target: T11, p70S6Kb/RPS6KB2 (Homo sapiens, UniProt Q9UBS0)
T11 construct: purchased Reaction Biology Corporation (Kinase HotSpot)
Summary of the method: as §1

PKG1b = target: T12, PKG1b (Homo sapiens, UniProt Q13976)
T12 construct: purchased Reaction Biology Corporation (Kinase HotSpot)
Summary of the method: as §1

PKAcb = target: T13, PKAcb (Homo sapiens, UniProt P22694)
T13 construct: purchased Reaction Biology Corporation (Kinase HotSpot)
Summary of the method: as §1

PAK4 = target: T14, PAK4 (Homo sapiens, UniProt O96013)
T14 construct: purchased Reaction Biology Corporation (Kinase HotSpot)
Summary of the method: as §1

CHK1 = target: T15, CHK1 (Homo sapiens, UniProt O14757)
T15 construct: purchased Reaction Biology Corporation (Kinase HotSpot)
Summary of the method: as §1

MEK1 = target: T16, MEK1 (Homo sapiens, UniProt Q02750)
T16 construct: purchased Reaction Biology Corporation (Kinase HotSpot)
Summary of the method: as §1

EPHB4 = target: T17, EPHB4 (Homo sapiens, UniProt P54760)
T17 construct: purchased Reaction Biology Corporation (Kinase HotSpot)
Summary of the method: as §1

MEKK6 = target: T18, MEKK6 (Homo sapiens, UniProt O95382)
T18 construct: purchased Reaction Biology Corporation (Kinase HotSpot)
Summary of the method: as §1

ERBB4/HER4 = target: T19, ERBB4/HER4 (Homo sapiens, UniProt Q15303)
T19 construct: purchased Reaction Biology Corporation (Kinase HotSpot)
Summary of the method: as §1

VRK1 = target: T20, VRK1 (Homo sapiens, UniProt Q99986)
T20 construct: purchased Reaction Biology Corporation (Kinase HotSpot)
Summary of the method: as §1

TNK1 = target: T21, TNK1 (Homo sapiens, UniProt Q13470)
T21 construct: purchased Reaction Biology Corporation (Kinase HotSpot)
Summary of the method: as §1

EPHB3 = target: T22, EPHB3 (Homo sapiens, UniProt P54753)
T22 construct: purchased Reaction Biology Corporation (Kinase HotSpot)
Summary of the method: as §1

CDK5/p25 = target: T23, CDK5/p25 (Homo sapiens, UniProt Q00535)
T23 construct: purchased Reaction Biology Corporation (Kinase HotSpot)
Summary of the method: as §1

ALK5/TGFBR1 = target: T24, ALK5/TGFBR1 (Homo sapiens, UniProt P36897)
T24 construct: purchased Reaction Biology Corporation (Kinase HotSpot)
Summary of the method: as §1

TAK1 = target: T25, TAK1 (Homo sapiens, UniProt O43318)
T25 construct: purchased Reaction Biology Corporation (Kinase HotSpot)
Summary of the method: as §1

CDC7/DBF4 = target: T26, CDC7/DBF4 (Homo sapiens, UniProt O00311)
T26 construct: purchased Reaction Biology Corporation (Kinase HotSpot)
Summary of the method: as §1

AXL = target: T27, AXL (Homo sapiens, UniProt P30530)
T27 construct: purchased Reaction Biology Corporation (Kinase HotSpot)
Summary of the method: as §1

FGFR4 = target: T28, FGFR4 (Homo sapiens, UniProt P22455)
T28 construct: purchased Reaction Biology Corporation (Kinase HotSpot)
Summary of the method: as §1

TESK2 = target: T29, TESK2 (Homo sapiens, UniProt Q96S53)
T29 construct: purchased Reaction Biology Corporation (Kinase HotSpot)
Summary of the method: as §1

PDK1/PDPK1 = target: T30, PDK1/PDPK1 (Homo sapiens, UniProt O15530)
T30 construct: purchased Reaction Biology Corporation (Kinase HotSpot)
Summary of the method: as §1

T3 sequence (O75116 whole entry): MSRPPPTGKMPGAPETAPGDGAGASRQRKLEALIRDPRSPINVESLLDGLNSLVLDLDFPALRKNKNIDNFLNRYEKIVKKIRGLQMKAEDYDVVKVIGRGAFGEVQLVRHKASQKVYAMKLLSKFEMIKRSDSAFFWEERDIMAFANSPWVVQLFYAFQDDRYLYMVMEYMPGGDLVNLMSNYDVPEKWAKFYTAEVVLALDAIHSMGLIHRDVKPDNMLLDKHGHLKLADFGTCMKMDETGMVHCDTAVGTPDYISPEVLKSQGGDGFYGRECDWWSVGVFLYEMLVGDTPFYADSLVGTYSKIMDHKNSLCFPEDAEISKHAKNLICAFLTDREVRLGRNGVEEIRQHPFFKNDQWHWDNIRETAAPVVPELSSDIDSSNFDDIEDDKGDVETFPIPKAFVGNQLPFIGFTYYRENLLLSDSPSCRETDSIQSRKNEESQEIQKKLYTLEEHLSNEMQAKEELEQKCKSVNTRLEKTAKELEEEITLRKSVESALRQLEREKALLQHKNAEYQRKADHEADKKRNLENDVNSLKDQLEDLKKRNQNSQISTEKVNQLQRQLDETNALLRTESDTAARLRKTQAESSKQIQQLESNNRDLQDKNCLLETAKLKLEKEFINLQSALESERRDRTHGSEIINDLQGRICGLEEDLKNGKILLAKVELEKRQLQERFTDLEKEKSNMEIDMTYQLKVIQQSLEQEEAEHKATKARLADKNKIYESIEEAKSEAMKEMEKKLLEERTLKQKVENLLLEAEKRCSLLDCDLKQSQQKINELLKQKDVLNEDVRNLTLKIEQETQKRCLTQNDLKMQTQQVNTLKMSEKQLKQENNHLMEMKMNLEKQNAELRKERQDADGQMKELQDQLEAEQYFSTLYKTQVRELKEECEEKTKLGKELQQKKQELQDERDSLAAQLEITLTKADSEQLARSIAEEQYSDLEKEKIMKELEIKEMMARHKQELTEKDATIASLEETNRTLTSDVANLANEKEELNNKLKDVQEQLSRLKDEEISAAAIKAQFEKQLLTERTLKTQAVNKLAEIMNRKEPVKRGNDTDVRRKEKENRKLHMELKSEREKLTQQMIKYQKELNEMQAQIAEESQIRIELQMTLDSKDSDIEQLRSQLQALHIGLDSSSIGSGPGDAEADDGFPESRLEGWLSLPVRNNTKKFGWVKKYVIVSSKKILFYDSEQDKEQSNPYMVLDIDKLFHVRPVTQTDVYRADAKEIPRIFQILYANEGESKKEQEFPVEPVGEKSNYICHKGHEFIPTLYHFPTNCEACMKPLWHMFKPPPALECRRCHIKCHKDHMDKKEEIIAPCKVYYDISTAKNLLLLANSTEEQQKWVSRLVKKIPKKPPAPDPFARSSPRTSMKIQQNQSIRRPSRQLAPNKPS
T25 sequence (O43318 1-303 limits assumed): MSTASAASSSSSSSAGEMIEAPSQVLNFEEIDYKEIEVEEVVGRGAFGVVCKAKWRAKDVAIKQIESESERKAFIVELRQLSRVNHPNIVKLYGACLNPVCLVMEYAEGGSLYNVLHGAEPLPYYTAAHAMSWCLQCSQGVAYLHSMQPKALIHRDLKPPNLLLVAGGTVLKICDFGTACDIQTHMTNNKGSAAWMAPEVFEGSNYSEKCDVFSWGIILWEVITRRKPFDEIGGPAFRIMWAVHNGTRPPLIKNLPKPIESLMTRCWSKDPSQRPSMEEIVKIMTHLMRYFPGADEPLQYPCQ
T18 sequence (O95382 whole entry): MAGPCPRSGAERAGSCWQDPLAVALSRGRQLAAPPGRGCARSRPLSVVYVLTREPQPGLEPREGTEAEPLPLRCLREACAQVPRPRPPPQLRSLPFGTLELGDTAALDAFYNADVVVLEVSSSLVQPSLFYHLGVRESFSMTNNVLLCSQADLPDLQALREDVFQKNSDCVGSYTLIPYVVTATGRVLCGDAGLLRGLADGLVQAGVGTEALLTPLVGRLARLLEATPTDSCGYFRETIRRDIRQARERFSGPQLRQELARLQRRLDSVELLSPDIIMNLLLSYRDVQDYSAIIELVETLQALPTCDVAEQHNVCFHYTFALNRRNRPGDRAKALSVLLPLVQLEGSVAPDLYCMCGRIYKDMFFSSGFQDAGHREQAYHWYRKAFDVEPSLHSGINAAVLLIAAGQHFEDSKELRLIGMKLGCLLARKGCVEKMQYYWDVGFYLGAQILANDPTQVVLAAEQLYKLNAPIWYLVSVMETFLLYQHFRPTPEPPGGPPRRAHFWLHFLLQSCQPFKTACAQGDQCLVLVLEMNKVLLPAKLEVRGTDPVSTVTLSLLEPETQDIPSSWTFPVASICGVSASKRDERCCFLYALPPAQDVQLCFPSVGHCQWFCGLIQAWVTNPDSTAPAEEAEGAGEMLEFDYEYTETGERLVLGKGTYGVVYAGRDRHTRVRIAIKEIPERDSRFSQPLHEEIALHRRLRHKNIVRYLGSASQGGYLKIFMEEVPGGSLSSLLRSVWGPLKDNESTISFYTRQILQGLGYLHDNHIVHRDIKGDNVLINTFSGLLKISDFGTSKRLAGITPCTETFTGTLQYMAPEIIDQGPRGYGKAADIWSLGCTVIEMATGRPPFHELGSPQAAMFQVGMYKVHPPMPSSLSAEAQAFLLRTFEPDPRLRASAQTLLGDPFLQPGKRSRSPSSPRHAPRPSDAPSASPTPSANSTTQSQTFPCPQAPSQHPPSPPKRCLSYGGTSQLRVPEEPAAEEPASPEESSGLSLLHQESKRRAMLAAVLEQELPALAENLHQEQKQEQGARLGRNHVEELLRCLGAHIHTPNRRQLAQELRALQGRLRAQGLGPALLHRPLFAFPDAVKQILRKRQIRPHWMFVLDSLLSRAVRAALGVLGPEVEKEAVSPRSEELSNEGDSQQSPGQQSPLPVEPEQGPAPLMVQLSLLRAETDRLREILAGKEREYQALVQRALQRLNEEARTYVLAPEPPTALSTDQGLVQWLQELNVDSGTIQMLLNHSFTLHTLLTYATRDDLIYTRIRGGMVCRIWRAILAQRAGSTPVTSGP
T8 sequence (Q86UE8 whole entry): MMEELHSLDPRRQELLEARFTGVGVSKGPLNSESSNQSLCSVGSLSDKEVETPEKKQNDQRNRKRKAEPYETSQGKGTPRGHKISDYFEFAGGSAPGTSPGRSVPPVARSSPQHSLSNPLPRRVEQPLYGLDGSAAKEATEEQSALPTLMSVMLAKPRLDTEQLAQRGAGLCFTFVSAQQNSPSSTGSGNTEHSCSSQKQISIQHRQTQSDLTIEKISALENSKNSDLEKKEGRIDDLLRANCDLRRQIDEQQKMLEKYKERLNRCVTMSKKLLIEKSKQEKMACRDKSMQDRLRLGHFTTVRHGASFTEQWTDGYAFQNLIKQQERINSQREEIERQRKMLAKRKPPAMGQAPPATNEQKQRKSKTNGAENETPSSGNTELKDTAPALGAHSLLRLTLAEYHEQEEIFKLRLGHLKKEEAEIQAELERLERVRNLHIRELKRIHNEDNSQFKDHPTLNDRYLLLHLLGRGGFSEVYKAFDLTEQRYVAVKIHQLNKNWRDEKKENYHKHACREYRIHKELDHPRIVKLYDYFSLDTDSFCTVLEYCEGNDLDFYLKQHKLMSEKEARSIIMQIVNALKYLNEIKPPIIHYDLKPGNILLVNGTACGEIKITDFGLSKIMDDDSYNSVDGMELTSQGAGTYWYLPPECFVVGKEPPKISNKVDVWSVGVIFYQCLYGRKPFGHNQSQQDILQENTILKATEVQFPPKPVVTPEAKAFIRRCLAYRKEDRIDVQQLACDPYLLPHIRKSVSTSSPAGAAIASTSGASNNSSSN
T24 sequence (P36897 34-503): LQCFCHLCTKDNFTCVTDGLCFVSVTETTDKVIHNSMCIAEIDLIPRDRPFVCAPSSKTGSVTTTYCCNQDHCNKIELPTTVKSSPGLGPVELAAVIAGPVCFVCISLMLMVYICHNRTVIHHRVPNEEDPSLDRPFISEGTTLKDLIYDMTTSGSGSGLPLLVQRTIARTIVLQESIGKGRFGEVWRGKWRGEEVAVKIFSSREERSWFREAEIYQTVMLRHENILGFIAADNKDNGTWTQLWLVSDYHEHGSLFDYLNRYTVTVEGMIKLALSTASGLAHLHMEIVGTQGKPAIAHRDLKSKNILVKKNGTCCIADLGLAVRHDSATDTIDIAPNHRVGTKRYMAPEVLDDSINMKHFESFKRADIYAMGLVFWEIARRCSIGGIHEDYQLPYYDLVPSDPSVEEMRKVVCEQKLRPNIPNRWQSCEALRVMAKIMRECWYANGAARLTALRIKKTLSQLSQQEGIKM
T27 sequence (P30530 26-894): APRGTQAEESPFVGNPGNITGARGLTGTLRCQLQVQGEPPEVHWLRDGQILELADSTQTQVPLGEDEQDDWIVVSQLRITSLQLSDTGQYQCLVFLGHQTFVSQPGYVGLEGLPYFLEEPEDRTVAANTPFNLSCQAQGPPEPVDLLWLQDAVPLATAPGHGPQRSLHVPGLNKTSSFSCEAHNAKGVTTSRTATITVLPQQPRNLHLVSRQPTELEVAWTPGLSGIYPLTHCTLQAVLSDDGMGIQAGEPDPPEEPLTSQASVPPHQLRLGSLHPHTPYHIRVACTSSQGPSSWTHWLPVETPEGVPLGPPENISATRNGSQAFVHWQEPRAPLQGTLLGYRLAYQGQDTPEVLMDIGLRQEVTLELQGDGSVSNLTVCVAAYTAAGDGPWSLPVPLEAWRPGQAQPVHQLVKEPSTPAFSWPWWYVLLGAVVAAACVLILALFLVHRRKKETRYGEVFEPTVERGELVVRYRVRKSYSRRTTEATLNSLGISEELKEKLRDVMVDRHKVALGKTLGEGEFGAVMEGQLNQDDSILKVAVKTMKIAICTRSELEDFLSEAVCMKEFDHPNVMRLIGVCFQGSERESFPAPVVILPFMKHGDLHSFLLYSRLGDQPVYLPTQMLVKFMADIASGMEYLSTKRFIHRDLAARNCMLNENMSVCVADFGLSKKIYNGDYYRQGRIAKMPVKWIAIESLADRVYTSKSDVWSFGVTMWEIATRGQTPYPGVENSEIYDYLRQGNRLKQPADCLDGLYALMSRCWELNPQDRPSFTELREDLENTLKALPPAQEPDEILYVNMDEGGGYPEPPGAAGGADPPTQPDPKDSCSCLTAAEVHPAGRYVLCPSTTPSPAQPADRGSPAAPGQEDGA

Compound `Cc1cnc(N[C@H]2CC[C@H](N)CC2)nc1-c1cnc2ccc(-c3ccccc3)cn12` [CDDD11-8] has a remaining activity at 1 µM (PYK2) of 84.2%, a remaining activity at 1 µM (FGFR2) of 72.5% and a remaining activity at 1 µM (ROCK2) of 88.9%. It also gave a remaining activity at 1 µM (SNRK) of 100%, a remaining activity at 1 µM (WNK1) of 90% and a remaining activity at 1 µM (CK2a) of 80.3%. The remaining activity at 1 µM (ASK1/MAP3K5) was 90.2%, the remaining activity at 1 µM (TLK2) was 97.8% and the remaining activity at 1 µM (PKCiota) was 88.8%. For the same compound, the remaining activity at 1 µM (MAPKAPK3) was 91.8%, the remaining activity at 1 µM (p70S6Kb/RPS6KB2) was 98.6% and the remaining activity at 1 µM (PKG1b) was 77.5%. It also gave a remaining activity at 1 µM (PKAcb) of 89.6%, a remaining activity at 1 µM (PAK4) of 99.7% and a remaining activity at 1 µM (CHK1) of 95.2%. For the same compound, the remaining activity at 1 µM (MEK1) was 98.9%, the remaining activity at 1 µM (EPHB4) was 81% and the remaining activity at 1 µM (MEKK6) was 104%. The remaining activity at 1 µM (ERBB4/HER4) was 96.9%, the remaining activity at 1 µM (VRK1) was 42.4% and the remaining activity at 1 µM (TNK1) was 55.4%. It also gave a remaining activity at 1 µM (EPHB3) of 92.7%, a remaining activity at 1 µM (CDK5/p25) of 77.8% and a remaining activity at 1 µM (ALK5/TGFBR1) of 93.9%. It also gave a remaining activity at 1 µM (TAK1) of 77.8%, a remaining activity at 1 µM (CDC7/DBF4) of 109% and a remaining activity at 1 µM (AXL) of 44.4%. It also gave a remaining activity at 1 µM (FGFR4) of 104%, a remaining activity at 1 µM (TESK2) of 100% and a remaining activity at 1 µM (PDK1/PDPK1) of 105%.
